PubChem BioAssay AID2060623 (Molecular Pharmacology Branch, DTP, NCI, 2025)

Test system: 227483-062-R1-J1-PDC complex spheroids with HUVEC/MSC, viability
Experiment: Anticancer human tumor 227483-062-R1-J1-PDC patient-derived pancreatic carcinoma cell line growth inhibition [CLK]
Conditions: for IC50: curve of first compound; for viability, T/C: stronger effect = lower value
Summary of the method: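 Multi-cell-type spheroids combined patient-derived tumor cells with HUVEC endothelial cells and human mesenchymal stem cells. Paired agents were dosed in half-log steps down from about clinical Cmax, or from 10 microM where Cmax was unknown.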
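Note: spheroids exposed to compounds for seven days before readout.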
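Throughout, for viability, T/C: percent of DMSO vehicle control luminescence as 100% viability.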

CC(C)CC(NC(=O)C(Cc1ccccc1)NC(=O)c1cnccn1)B(O)O (centres undefined) + CNC(=O)c1ccc(Nc2nc(OC3CCCC3)c3c(-c4ccc5nc(C)oc5c4)c[nH]c3n2)c(OC)c1 was tested, and the IC50 (second compound 0.0316 µM) was 1.53 nM, the IC50 (second compound 0.1 µM) was 1.64 nM and the IC50 (second compound 0.316 µM) was 1.39 nM. The IC50 (second compound 1 µM) was under 0.949 nM, the IC50 (second compound 3.16 µM) was under 0.949 nM and the IC50 (second compound 10 µM) was under 0.949 nM. It also gave a viability, T/C (second compound 0.0316 µM, first compound 0.000949 µM) of 84%, a viability, T/C (second compound 0.0316 µM, first compound 0.003 µM) of 1.62% and a viability, T/C (second compound 0.0316 µM, first compound 0.00949 µM) of 0.49%. For the same compound, the viability, T/C (second compound 0.0316 µM, first compound 0.03 µM) was 1.29%, the viability, T/C (second compound 0.0316 µM, first compound 0.0949 µM) was 0.77% and the viability, T/C (second compound 0.0316 µM, first compound 0.3 µM) was 1.96%. For the same compound, the viability, T/C (second compound 0.1 µM, first compound 0.000949 µM) was 94.3%, the viability, T/C (second compound 0.1 µM, first compound 0.003 µM) was 1.2% and the viability, T/C (second compound 0.1 µM, first compound 0.00949 µM) was 1.56%. For the same compound, the viability, T/C (second compound 0.1 µM, first compound 0.03 µM) was 0.47%, the viability, T/C (second compound 0.1 µM, first compound 0.0949 µM) was 0.71% and the viability, T/C (second compound 0.1 µM, first compound 0.3 µM) was 0.48%. The viability, T/C (second compound 0.316 µM, first compound 0.000949 µM) was 74.2%, the viability, T/C (second compound 0.316 µM, first compound 0.003 µM) was 0.82% and the viability, T/C (second compound 0.316 µM, first compound 0.00949 µM) was 0.43%. For the same compound, the viability, T/C (second compound 0.316 µM, first compound 0.03 µM) was 0.97%, the viability, T/C (second compound 0.316 µM, first compound 0.0949 µM) was 0.43% and the viability, T/C (second compound 0.316 µM, first compound 0.3 µM) was 0.68%. It also gave a viability, T/C (second compound 1 µM, first compound 0.000949 µM) of 42.7%, a viability, T/C (second compound 1 µM, first compound 0.003 µM) of 0.52% and a viability, T/C (second compound 1 µM, first compound 0.00949 µM) of 0.29%. It also gave a viability, T/C (second compound 1 µM, first compound 0.03 µM) of 0.28%, a viability, T/C (second compound 1 µM, first compound 0.0949 µM) of 1.45% and a viability, T/C (second compound 1 µM, first compound 0.3 µM) of 0.23%. It also gave a viability, T/C (second compound 3.16 µM, first compound 0.000949 µM) of 26.4%, a viability, T/C (second compound 3.16 µM, first compound 0.003 µM) of 0.37% and a viability, T/C (second compound 3.16 µM, first compound 0.00949 µM) of 0.79%. It also gave a viability, T/C (second compound 3.16 µM, first compound 0.03 µM) of 0.21%, a viability, T/C (second compound 3.16 µM, first compound 0.0949 µM) of 1.01% and a viability, T/C (second compound 3.16 µM, first compound 0.3 µM) of 0.26%. The viability, T/C (second compound 10 µM, first compound 0.000949 µM) was 17%, the viability, T/C (second compound 10 µM, first compound 0.003 µM) was 0.42% and the viability, T/C (second compound 10 µM, first compound 0.00949 µM) was 0.24%. It also gave a viability, T/C (second compound 10 µM, first compound 0.03 µM) of 0.26%, a viability, T/C (second compound 10 µM, first compound 0.0949 µM) of 1.09% and a viability, T/C (second compound 10 µM, first compound 0.3 µM) of 0.3%.
O=C(c1cc(Cc2n[nH]c(=O)c3ccccc23)ccc1F)N1CCN(C(=O)C2CC2)CC1 + CNC(=O)c1ccc(Nc2nc(OC3CCCC3)c3c(-c4ccc5nc(C)oc5c4)c[nH]c3n2)c(OC)c1 showed an IC50 (second compound 0.0316 µM) of over 10000 nM, an IC50 (second compound 0.1 µM) of over 10000 nM and an IC50 (second compound 0.316 µM) of over 10000 nM. It also gave an IC50 (second compound 1 µM) of over 10000 nM, an IC50 (second compound 3.16 µM) of 44.9 nM and an IC50 (second compound 10 µM) of under 31.6 nM. For the same compound, the viability, T/C (second compound 0.0316 µM, first compound 0.0316 µM) was 86.9%, the viability, T/C (second compound 0.0316 µM, first compound 0.1 µM) was 84.9% and the viability, T/C (second compound 0.0316 µM, first compound 0.316 µM) was 119%. For the same compound, the viability, T/C (second compound 0.0316 µM, first compound 1 µM) was 93.1%, the viability, T/C (second compound 0.0316 µM, first compound 3.16 µM) was 100% and the viability, T/C (second compound 0.0316 µM, first compound 10 µM) was 98.4%. It also gave a viability, T/C (second compound 0.1 µM, first compound 0.0316 µM) of 86.1%, a viability, T/C (second compound 0.1 µM, first compound 0.1 µM) of 117% and a viability, T/C (second compound 0.1 µM, first compound 0.316 µM) of 89.3%. For the same compound, the viability, T/C (second compound 0.1 µM, first compound 1 µM) was 89.5%, the viability, T/C (second compound 0.1 µM, first compound 3.16 µM) was 91.5% and the viability, T/C (second compound 0.1 µM, first compound 10 µM) was 91.3%. For the same compound, the viability, T/C (second compound 0.316 µM, first compound 0.0316 µM) was 86.8%, the viability, T/C (second compound 0.316 µM, first compound 0.1 µM) was 92.9% and the viability, T/C (second compound 0.316 µM, first compound 0.316 µM) was 78.5%. It also gave a viability, T/C (second compound 0.316 µM, first compound 1 µM) of 89.3%, a viability, T/C (second compound 0.316 µM, first compound 3.16 µM) of 95.5% and a viability, T/C (second compound 0.316 µM, first compound 10 µM) of 99%. It also gave a viability, T/C (second compound 1 µM, first compound 0.0316 µM) of 63.3%, a viability, T/C (second compound 1 µM, first compound 0.1 µM) of 60.9% and a viability, T/C (second compound 1 µM, first compound 0.316 µM) of 65.4%. For the same compound, the viability, T/C (second compound 1 µM, first compound 1 µM) was 61.1%, the viability, T/C (second compound 1 µM, first compound 3.16 µM) was 80.1% and the viability, T/C (second compound 1 µM, first compound 10 µM) was 66.3%. It also gave a viability, T/C (second compound 3.16 µM, first compound 0.0316 µM) of 50.9%, a viability, T/C (second compound 3.16 µM, first compound 0.1 µM) of 54.5% and a viability, T/C (second compound 3.16 µM, first compound 0.316 µM) of 40.5%. For the same compound, the viability, T/C (second compound 3.16 µM, first compound 1 µM) was 48.9%, the viability, T/C (second compound 3.16 µM, first compound 3.16 µM) was 50.3% and the viability, T/C (second compound 3.16 µM, first compound 10 µM) was 47.7%. It also gave a viability, T/C (second compound 10 µM, first compound 0.0316 µM) of 37%, a viability, T/C (second compound 10 µM, first compound 0.1 µM) of 34% and a viability, T/C (second compound 10 µM, first compound 0.316 µM) of 35.3%. It also gave a viability, T/C (second compound 10 µM, first compound 1 µM) of 42.1%, a viability, T/C (second compound 10 µM, first compound 3.16 µM) of 42.3% and a viability, T/C (second compound 10 µM, first compound 10 µM) of 39%.
